Reference: patent US5486514A, “Carbamate derivatives” (Glaxo SpA, priority 1992, dated 1996)

Experiments:
CCK-A receptor = assay: CCK receptor binding, CCK-A receptor (Pancreas Assay)
Description: (§1) The greater affinity of the compounds of the invention for the CCK-B receptor over the CCK-A receptor has also been established using the CCK receptor binding assays described by G Dal Fornos et al., J. Pharmcol. Exp & Ther. 261, 1056-1063, 1992.
(§2) The binding affinity of the compounds of the invention for the CCK-A receptor (Pancreas Assay) and CCK-B receptor (guinea pig cortex assay) was determined using the procedure of G Dal Forno et al J. Pharmacol. Exp & Ther. 261--1056-1063. The pKi values determined with representative compounds of invention were as follows: […]

CCK-B receptor = biological target: T1, CCK-B receptor (Cavia porcellus, UniProt H0VZC5); assay: CCK receptor binding, CCK-B receptor (guinea pig cortex assay); settings: read-out: pKi CCK-B (converted)
T1 construct: CCK-B receptor (guinea pig cortex assay); from tissue; host or cells: guinea pig cortex
Description: as §1, §2

T1 sequence (H0VZC5 entry or part of it): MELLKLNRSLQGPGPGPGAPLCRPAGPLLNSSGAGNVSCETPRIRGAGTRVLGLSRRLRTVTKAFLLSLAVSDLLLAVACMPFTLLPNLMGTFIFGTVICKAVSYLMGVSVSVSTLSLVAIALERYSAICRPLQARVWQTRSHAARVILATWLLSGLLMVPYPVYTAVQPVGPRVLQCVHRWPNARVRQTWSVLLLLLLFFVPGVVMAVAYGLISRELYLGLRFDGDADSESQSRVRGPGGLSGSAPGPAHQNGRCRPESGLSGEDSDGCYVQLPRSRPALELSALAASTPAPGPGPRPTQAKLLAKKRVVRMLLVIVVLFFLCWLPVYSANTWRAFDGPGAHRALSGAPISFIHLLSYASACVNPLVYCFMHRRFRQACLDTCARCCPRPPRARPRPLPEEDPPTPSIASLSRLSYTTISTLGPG

Compound	pKi CCK-A (CCK-A receptor)	Ki (CCK-B receptor) [nM]
CN(C)c1cccc(OC(=O)NC2C(=O)N(CCC(C)(C)C)c3ccccc3N(c3ccccc3F)C2=O)c1 (racemic) [Example 9, 3-[3-(N,N-dimethylamino)phenyloxycarbonylamino]-1-(3,3-dimethylbut-1-yl)-2,4-dioxo-5-(2-fluorophenyl)-2,3,4,5-tetrahydro-1H-1,5-benzodiazepine]	6.75	1.02
CC(C)CCN1C(=O)C(NC(=O)Oc2cccc(N(C)C)c2)C(=O)N(c2ccccc2)c2ccc(Cl)cc21 (racemic) [Example 24, 8-Chloro-3-[3-(N,N-dimethylamino)phenyloxycarbonylamino]-2,4-dioxo-1-(3-methylbut-1-yl)-5-phenyl-2,3,4,5-tetrahydro-1H-1,5-benzodiazepine]	5.89	3.39
COc1cccc(OC(=O)NC2C(=O)N(CCC(C)C)c3cc(Cl)ccc3N(c3ccccc3)C2=O)c1 (racemic) [Example 38, 8-Chloro-2,4-dioxo-3-(3-methoxyphenyloxycarbonyl)amino-1-(3-methyl-1-butyl)-5-phenyl-2,3,4,5-tetrahydro-1H-1,5-benzodiazepine]	5.35	20
CC(C)(C)CCN1C(=O)C(NC(=O)Oc2ccccc2)C(=O)N(c2ccccc2F)c2ccccc21 (stereo not drawn) [Example 7]	6.43	3.89
CN(C)c1cccc(OC(=O)NC2C(=O)N(CC34CC5CC(CC(C5)C3)C4)c3ccccc3N(c3ccccc3)C2=O)c1 (stereo not drawn) [Example 20]	5.48	12.3
O=C(NC1C(=O)N(CCC2CCCC2)c2ccccc2N(c2ccccc2F)C1=O)Oc1ccccc1 (stereo not drawn) [Example 13]	6.25	4.57
COc1cccc(OC(=O)NC2C(=O)N(CCC(C)C)c3cc(Cl)c(Cl)cc3N(c3ccccc3)C2=O)c1 (racemic) [Example 25, 7,8-Dichloro-2,4-dioxo-3-(3-methoxyphenyloxycarbonyl)amino-1-(3-methyl-1-butyl)-5-phenyl-2,3,4,5-tetrahydro-1H-1,5-benzodiazepine]	5.37	6.31
CC(C)C(=O)CN1C(=O)C(NC(=O)Oc2cccc(N(C)C)c2)C(=O)N(c2ccccc2)c2ccccc21 (stereo not drawn) [Example 4, 3-[3-(N,N-dimethylamino)phenyloxycarbonylamino-2,4-dioxo-1-(3-methyl-2-oxo)but-1-yl)-5-phenyl-2,3,4,5-tetrahydro-1H-1,5-benzodiazepine]	6.25	3.09
CC(C)CCN1C(=O)C(NC(=O)Oc2cccc(N(C)C)c2)C(=O)N(c2ccccc2F)c2ccccc21 (racemic) [Example 8, 3-[3-(N,N-dimethylamino)phenyloxycarbonylamino]-2,4-dioxo-5-(2-fluorophenyl)-1-(3-methylbut-1-yl)-2,3,4,5-tetrahydro-1H-1,5-benzodiazepine]	6.38	1.58
CC(C)CCN1C(=O)C(NC(=O)Oc2cccc(N(C)C)c2)C(=O)N(c2ccccc2)c2ccccc21 (stereo not drawn) [Example 3]	6.24	3.16
CC(C)CCN1C(=O)C(NC(=O)Oc2cccc(N(C)C)c2)C(=O)N(c2ccccc2)c2cc(Cl)c(Cl)cc21 (racemic) [Example 12, 7,8-Dichloro-3[3-(N,N-dimethylamino)phenyloxycarbonylamino]-2,4-dioxo-1-(3-methylbut-1-yl)-5-phenyl-2,3,4,5-tetrahydro-1H-1,5-benzodiazepine]	5.49	7.41
CC(C)CCN1C(=O)C(NC(=O)Oc2ccccc2)C(=O)N(c2ccccc2)c2ccccc21 (racemic) [Example 1, 2,4-Dioxo-1-(3-methylbut-1-yl)-5-phenyl-3-(phenyloxycarbonylamino)-2,3,4,5-tetrahydro-1H-1,5-benzodiazepine]	5.29	21.4
